The subject of this assay is P388 leukemia ip, CD2F1 mice, survival T/C. As to the kind of experiment: NCI In Vivo Anticancer Drug Screen. Data for tumor model P388 Leukemia (intraperitoneal) in CD2F1 (CDF1) mice. As to conditions: endpoint: median survival time, higher = longer survival. The method, boiled down: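 Mice carrying the transplanted tumor received test compound or vehicle. Survival was recorded in each group, and the value is the treated-group measurement divided by that of the vehicle-treated control group.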

Where [1] appears, read: dose: 50.0 mg/kg/injection, schedule: Q01DX005 (ip), vehicle: saline with Tween-80.
Setting [2] is: dose: 100.0 mg/kg/injection, schedule: Q01DX005 (ip), vehicle: saline with Tween-80.
Where [3] appears, read: dose: 200.0 mg/kg/injection, schedule: Q01DX005 (ip), vehicle: saline with Tween-80.
[4] abbreviates: dose: 50.0 mg/kg/injection, schedule: Q01DX005 (ip), vehicle: Klucel (hydroxypropylcellulose) (HPC).
[5] abbreviates: dose: 100.0 mg/kg/injection, schedule: Q01DX005 (ip), vehicle: Klucel (hydroxypropylcellulose) (HPC).
The mark [6] stands for this setting: dose: 200.0 mg/kg/injection, schedule: Q01DX005 (ip), vehicle: Klucel (hydroxypropylcellulose) (HPC).
Setting [7] is: dose: 120.0 mg/kg/injection, schedule: Q01DX005 (ip), vehicle: saline with Tween-80.
Where [8] appears, read: dose: 240.0 mg/kg/injection, schedule: Q01DX005 (ip), vehicle: saline with Tween-80.

Inconclusive results and toxic doses are left out.

18 molecules from PubChem BioAssay AID330 (DTP/NCI, 2004) can be followed below.

For the molecule `CC1Cc2ccc(OCCN(C)C)cc2C1O` (stereo unspecified), the T/C is 104 % of control (dose: 50.0 mg/kg/injection, schedule: Q01DX005 (ip), vehicle: saline); 102 % of control (dose: 100.0 mg/kg/injection, schedule: Q01DX005 (ip), vehicle: saline); 104 % of control (dose: 200.0 mg/kg/injection, schedule: Q01DX005 (ip), vehicle: saline).

For `Oc1ccc(C2Oc3ccccc3C=C2c2ccccc2)cc1` (stereo unspecified), the T/C under setting [1] is 94 % of control, the T/C under setting [2] is 89 % of control and the T/C under setting [3] is 96 % of control.

Take `CCCCC(=O)Nc1ccc(S(=O)(=O)O)c(N=NC2C(=O)N(c3ccccc3)N=C2C)c1` (stereo unspecified): the T/C (dose: 100.0 mg/kg/injection, schedule: Q04DX003 (ip), vehicle: saline) is 110 % of control; the T/C (dose: 200.0 mg/kg/injection, schedule: Q04DX003 (ip), vehicle: saline) is 100 % of control; the T/C (dose: 400.0 mg/kg/injection, schedule: Q04DX003 (ip), vehicle: saline) is 100 % of control.

As for `C/C(=N/NC(=S)N1CC2CCC(CC2)C1)c1cnccn1`, the T/C was 102 % of control (dose: 6.25 mg/kg/injection, schedule: Q01DX005 (ip), vehicle: saline with Tween-80) and 117 % of control (dose: 12.5 mg/kg/injection, schedule: Q01DX005 (ip), vehicle: saline with Tween-80).

Regarding `CP(=O)(OCCOCCOP(C)(=O)c1ccccc1)c1ccccc1` (stereo unspecified), the T/C is, setting by setting: under setting [4], 98 % of control; under setting [5], 103 % of control; under setting [6], 101 % of control.

In the case of `Cc1c([N+](=O)[O-])oc2cc3c(cc12)CCCC3`, the T/C reads like this: (dose: 60.0 mg/kg/injection, schedule: Q01DX005 (ip), vehicle: saline with Tween-80) 91 % of control; under setting [7], 93 % of control; under setting [8], 94 % of control.

As for `O=[N+]([O-])/C=C/c1cc2c(cc1Cl)OCO2`, the T/C reads like this: under setting [4], 107 % of control; under setting [5], 111 % of control; under setting [6], 95 % of control.

As for `CC1(C)C(=O)N2C(=O)CC(=O)N2C1=O`, the T/C is, setting by setting: under setting [7], 97 % of control; under setting [8], 93 % of control.

Regarding `COC1/C=C/OC2(C)Oc3c(C)c(O)c4c(c3C2=O)C(=O)c2cnc(nc2C4=O)/C(C)=C\C=C\C(C)C(O)C(C)C(O)C(C)C(OC(C)=O)C1C` (stereo unspecified), the T/C is 93 % of control (dose: 25.0 mg/kg/injection, schedule: Q01DX009 (ip), vehicle: other); 107 % of control (dose: 50.0 mg/kg/injection, schedule: Q01DX009 (ip), vehicle: other); 116 % of control (dose: 100.0 mg/kg/injection, schedule: Q01DX009 (ip), vehicle: other).

As for `CS(=O)(=O)OC1C(COC(=O)c2ccccc2)OC2C1Oc1nc(=O)ccn12` (stereo unspecified), the T/C under setting [4] is 98 % of control, the T/C under setting [5] was 99 % of control and the T/C under setting [6] is 101 % of control.

Consider `CC12CC3CC(C)(C1)CC(C/C=N/NC(N)=O)(C3)C2`, for which the T/C by setting is: (dose: 50.0 mg/kg/injection, schedule: Q01DX009 (ip), vehicle: Klucel (hydroxypropylcellulose) (HPC)) 102 % of control; (dose: 100.0 mg/kg/injection, schedule: Q01DX009 (ip), vehicle: Klucel (hydroxypropylcellulose) (HPC)) 92 % of control; (dose: 200.0 mg/kg/injection, schedule: Q01DX009 (ip), vehicle: Klucel (hydroxypropylcellulose) (HPC)) 99 % of control.

As to `CCC(/C=C/C1OC(=O)C=CC1C)=C\C(C)C/C=C/C(C)=C/C(C)C(=O)C(C)C(O)C(C)C/C(C)=C/C(=O)O` (stereo unspecified), the T/C (dose: 12.5 micrograms/kg/injection, schedule: Q01DX005 (ip), vehicle: saline + alcohol) is 118 % of control and the T/C (dose: 100.0 micrograms/kg/injection, schedule: Q01DX005 (ip), vehicle: saline + alcohol) is 92 % of control.

Regarding `c1c[nH]c2c3ccncc3c3ncnc3c2c1`, the T/C reads like this: under setting [4], 97 % of control; under setting [5], 88 % of control.

As to `Cc1ccc(OP(=O)(Oc2ccc(C)cc2)Oc2ccc(C)cc2)cc1.Cc1ccc(OP(=O)(Oc2ccc(C)cc2)Oc2ccc(C)cc2)cc1.Cc1ccc(OP(=O)(Oc2ccc(C)cc2)Oc2ccc(C)cc2)cc1.Cc1ccc(OP(=O)(Oc2ccc(C)cc2)Oc2ccc(C)cc2)cc1.[Co+2].[O-][Cl+3]([O-])([O-])O`, the T/C runs as follows: (dose: 100.0 mg/kg/injection, schedule: Q01DX001 (ip), vehicle: Klucel (hydroxypropylcellulose) (HPC)) 99 % of control; (dose: 200.0 mg/kg/injection, schedule: Q01DX001 (ip), vehicle: Klucel (hydroxypropylcellulose) (HPC)) 97 % of control; (dose: 400.0 mg/kg/injection, schedule: Q01DX001 (ip), vehicle: Klucel (hydroxypropylcellulose) (HPC)) 97 % of control.

In the case of `CCC(CC)(C(=O)Nc1ccc2c(c1)c(=O)c1ccccc1n2C)C(=O)Nc1ccc2c(c1)c(=O)c1ccccc1n2C`, the T/C is, setting by setting: under setting [1], 100 % of control; under setting [2], 101 % of control; under setting [3], 105 % of control.

As to `C=C1C(=O)OC2CC3(C)OC(=CC3=O)/C(C)=C\C(OC(=O)C3(C)OC3C)C12` (stereo unspecified), the T/C (dose: 1.56 mg/kg/injection, schedule: Q01DX005 (ip), vehicle: distilled water + Tween-80) is 105 % of control; the T/C (dose: 3.12 mg/kg/injection, schedule: Q01DX005 (ip), vehicle: distilled water + Tween-80) is 99 % of control; the T/C (dose: 6.25 mg/kg/injection, schedule: Q01DX005 (ip), vehicle: distilled water + Tween-80) was 96 % of control; the T/C (dose: 12.5 mg/kg/injection, schedule: Q01DX005 (ip), vehicle: distilled water + Tween-80) was 101 % of control.

For the molecule `COC(=O)CCn1nc(-c2ccccc2)c(-c2ccccc2)c(S(C)(=O)=O)c1=O`, the T/C reads like this: (dose: 25.0 mg/kg/injection, schedule: Q04DX002 (ip), vehicle: distilled water + Tween-80) 95 % of control; (dose: 50.0 mg/kg/injection, schedule: Q04DX002 (ip), vehicle: distilled water + Tween-80) 92 % of control; (dose: 200.0 mg/kg/injection, schedule: Q04DX002 (ip), vehicle: distilled water + Tween-80) 90 % of control.

Turning to `COc1cccc2c1C(=O)c1c(O)c3c(c(O)c1C2=O)C[C@@](O)(C(=O)COC(=O)c1ccccc1)C[C@@H]3OC1CC(N)C(O)C(C)O1` (stereo partly specified), the T/C was 168 % of control (dose: 0.5 mg/kg/injection, schedule: Q01DX009 (ip), vehicle: saline sonified); 186 % of control (dose: 1.0 mg/kg/injection, schedule: Q01DX009 (ip), vehicle: saline sonified); 190 % of control (dose: 2.0 mg/kg/injection, schedule: Q01DX009 (ip), vehicle: saline sonified).
